The target in assay [1] is purified human plasma kallikrein (Homo sapiens (Human), UniProt P03952). Put plainly: Plasma kallikrein enzyme inhibition assay (chromogenic substrate S-2302). Format: biochemical.
Assay [2] addresses purified human Factor XIa (Homo sapiens (Human), UniProt P03951). Put plainly: Factor XIa enzyme inhibition assay (chromogenic substrate S-2366).
The mark [3] stands for this setting: read-out: Factor XIa Ki, measured at 25° C.
Where [4] appears, read: measured at 25° C. (no asterisk).

This note sets out measurements from US9738655B2, “Tetrahydroisoquinolines containing substituted azoles as factor XIa inhibitors” (BRISTOL-MYERS SQUIBB COMPANY, priority 2013, dated 2017).

Where a name gives a salt, the structure may show the parent alone. Read-outs that look alike come from different tables or passages of the source.

Sequence of purified human Factor XIa (P03951 388-625): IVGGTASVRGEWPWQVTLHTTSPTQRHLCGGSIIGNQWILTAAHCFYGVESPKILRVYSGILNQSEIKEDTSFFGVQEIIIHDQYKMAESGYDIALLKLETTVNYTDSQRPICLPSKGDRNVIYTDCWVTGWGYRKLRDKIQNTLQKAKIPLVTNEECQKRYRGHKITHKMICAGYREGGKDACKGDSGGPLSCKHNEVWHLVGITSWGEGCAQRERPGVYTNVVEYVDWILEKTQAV
Sequence of purified human Factor XIa (P03951 19-387 partner): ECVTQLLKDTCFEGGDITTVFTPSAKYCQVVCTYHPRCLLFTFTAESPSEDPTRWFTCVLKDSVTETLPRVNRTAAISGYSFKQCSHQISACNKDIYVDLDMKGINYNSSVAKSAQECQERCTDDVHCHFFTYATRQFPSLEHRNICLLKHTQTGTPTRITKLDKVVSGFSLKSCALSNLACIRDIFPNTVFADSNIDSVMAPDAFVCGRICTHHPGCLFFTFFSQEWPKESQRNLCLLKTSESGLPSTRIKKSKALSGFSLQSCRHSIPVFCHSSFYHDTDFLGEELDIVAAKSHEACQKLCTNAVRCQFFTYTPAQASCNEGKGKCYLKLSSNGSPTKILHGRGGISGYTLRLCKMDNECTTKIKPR
Sequence of purified human plasma kallikrein (P03952 391-638): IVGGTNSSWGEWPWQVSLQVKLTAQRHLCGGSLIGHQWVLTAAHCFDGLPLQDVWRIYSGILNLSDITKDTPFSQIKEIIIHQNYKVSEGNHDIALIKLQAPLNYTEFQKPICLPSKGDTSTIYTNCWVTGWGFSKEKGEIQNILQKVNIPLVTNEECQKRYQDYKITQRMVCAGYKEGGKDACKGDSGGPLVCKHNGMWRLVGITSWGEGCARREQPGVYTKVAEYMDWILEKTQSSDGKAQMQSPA
Sequence of purified human plasma kallikrein (P03952 20-390 partner): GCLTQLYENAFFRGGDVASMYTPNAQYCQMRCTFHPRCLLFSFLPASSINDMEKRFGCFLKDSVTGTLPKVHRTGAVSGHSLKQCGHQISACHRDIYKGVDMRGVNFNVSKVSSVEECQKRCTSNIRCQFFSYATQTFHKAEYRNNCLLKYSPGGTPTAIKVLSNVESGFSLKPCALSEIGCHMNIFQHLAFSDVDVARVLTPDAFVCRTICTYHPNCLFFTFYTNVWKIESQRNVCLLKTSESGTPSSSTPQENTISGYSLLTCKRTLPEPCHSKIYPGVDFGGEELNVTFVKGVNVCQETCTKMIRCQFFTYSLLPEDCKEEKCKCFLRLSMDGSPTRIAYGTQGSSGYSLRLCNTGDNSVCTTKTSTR

A word on the Ki: it is the equilibrium dissociation constant of an inhibitor or competing ligand from its target. Consider `COC1CCN(c2cccc3c2CCN(C(=O)c2cn(-c4cccc(Cl)c4F)nn2)[C@@H]3C(=O)Nc2ccc(CO)cc2)CC1` [Example 122, (S)-2-(1-(3-Chloro-2-fluorophenyl)-1H-1,2,3-triazole-4-carbonyl)-N-(4-(hydroxymethyl)phenyl)-5-(4-methoxypiperidin-1-yl)-1,2,3,4-tetrahydroisoquinoline-1-carboxamide], for which the inhibition constant (Ki) came out at 99.8 nM in assay [1] (measured at 37° C. (*)) and 16.8 nM in assay [2] (setting [3]).
Turning to `O=C(O)c1ccc(NC(=O)C2c3cccc(N4CCN(CC(F)(F)F)CC4=O)c3CCN2C(=O)c2cn(-c3cccc(Cl)c3F)nn2)cc1` (centres unmarked) [Example 197, 4-(2-(1-(3-Chloro-2-fluorophenyl)-1H-1,2,3-triazole-4-carbonyl)-5-(2-oxo-4-(2,2,2-trifluoroethyl)piperazin-1-yl)-1,2,3,4-tetrahydroisoquinoline-1-carboxamido)benzoic acid, TFA salt], the Ki in assay [1] (setting [4]) was 10 nM; in assay [2] (setting [3]), less than 5 nM.
Take `O=C(Nc1cccc2c1CCN(C(=O)c1cn(-c3cccc(Cl)c3F)nn1)C2C(=O)Nc1ccc(C(=O)O)cc1)NC1CCCC1` (centres unmarked) [Example 193, 4-(2-(1-(3-Chloro-2-fluorophenyl)-1H-1,2,3-triazole-4-carbonyl)-5-(3-cyclopentylureido)-1,2,3,4-tetrahydroisoquinoline-1-carboxamido)benzoic acid]: the inhibition constant (Ki) in assay [1] (setting [4]) came out at 2.34 nM; in assay [2] (setting [3]), 19.9 nM.
For the compound `C=C(C)c1cccc2c1CCN(C(=O)c1cn(-c3cccc(Cl)c3F)nn1)C2C(=O)Nc1ccc(C(=O)O)cc1` (centres unmarked) [Example 333, 4-(2-(1-(3-Chloro-2-fluorophenyl)-1H-1,2,3-triazole-4-carbonyl)-5-(prop-1-en-2-yl)-1,2,3,4-tetrahydroisoquinoline-1-carboxamido)benzoic acid], the Ki came out at 61.3 nM in assay [1] (setting [4]) and 18.2 nM in assay [2] (setting [3]).
Regarding `O=C(O)c1ccc(NC(=O)[C@H]2c3cccc(N4CCOCC4)c3CCN2C(=O)c2cnn(-c3cccc(Cl)c3F)c2)cc1` [Example 88, (R)-4-(2-(1-(3-Chloro-2-fluorophenyl)-1H-pyrazole-4-carbonyl)-5-morpholino-1,2,3,4-tetrahydroisoquinoline-1-carboxamido)benzoic acid, TFA salt], the Ki in assay [1] (setting [4]) was determined as 2080 nM; in assay [2] (setting [3]), 391 nM.
With `COC1CCN(c2cccc3c2CCN(C(=O)c2cnn(-c4ccc5nonc5c4)c2)C3C(=O)Nc2ccc(C(=O)O)cc2)CC1` (centres unmarked) [Example 331, 4-(2-(1-(benzo[c][1,2,5]oxadiazol-5-yl)-1H-pyrazole-4-carbonyl)-5-(4-methoxypiperidin-1-yl)-1,2,3,4-tetrahydroisoquinoline-1-carboxamido)benzoic acid], the inhibitory constant (Ki) is greater than 6000 nM in assay [1] (measured at 37° C. (*)) and 7050 nM in assay [2] (setting [3]).
Consider `COC1CCN(c2cccc3c2CCN(C(=O)C2CC(=O)N(c4c(F)ccc(Cl)c4F)C2)C3C(=O)Nc2ccc(C(=O)O)cc2)CC1` (centres unmarked) [Example 71, 4-(2-(1-(3-chloro-2,6-difluorophenyl)-5-oxopyrrolidine-3-carbonyl)-5-(4-methoxypiperidin-1-yl)-1,2,3,4-tetrahydroisoquinoline-1-carboxamido)benzoic acid, TFA salt], for which the Ki in assay [1] (measured at 37° C. (*)) was greater than 6000 nM; in assay [2] (setting [3]), 913 nM.
`COC1CCN(c2cccc3c2CCN(C(=O)c2nnn(-c4cccc(Cl)c4F)c2C)C3C(=O)Nc2ccc(C(=O)O)cc2)CC1` (racemic) [Example 253, 4-(2-(1-(3-chloro-2-fluorophenyl)-5-methyl-1H-1,2,3-triazole-4-cabonyl)-5-(4-methoxypiperidin-1-yl)-1,2,3,4-tetrahydroisoquinoline-1-carboxamido)benzoic acid, TFA salt]: the inhibition constant Ki in assay [1] (setting [4]) stood at 156 nM; in assay [2], 11.1 nM.
Regarding `CC(C)c1nnc2n1CCN(c1cccc3c1CCN(C(=O)c1cn(-c4cccc(Cl)c4F)nn1)[C@H]3C(=O)Nc1ccc(C(=O)O)cc1)C2` [Example 65, (R)-4-(2-(1-(3-chloro-2-fluorophenyl)-1H-1,2,3-triazole-4-carbonyl)-5-(3-isopropyl-5,6-dihydro-[1,2,4]triazolo[4,3-a]pyrazin-7(8H)-yl)-1,2,3,4-tetrahydroisoquinoline-1-carboximido)benzoic acid, TFA salt], the inhibition constant Ki was found to be 260 nM in assay [1] (setting [4]) and 18.9 nM in assay [2] (setting [3]).
For `CN(C)C1CCN(c2cccc3c2CCN(C(=O)c2cn(-c4cccc(Cl)c4F)nn2)[C@H]3C(=O)Nc2ccc(C(=O)O)cc2)CC1` [Example 48, (R)-4-(2-(1-(3-chloro-2-fluorophenyl)-1H-1,2,3-triazole-4-carbonyl)-5-(4-(dimethylamino)piperidin-1-yl)-1,2,3,4-tetrahydroisoquinoline-1-carboxamido)benzoic acid, bis-TFA salt], the inhibition constant Ki in assay [1] (setting [4]) came out at 452 nM; in assay [2] it was 89.6 nM.
In the case of `O=C(O)c1ccc(NC(=O)C2c3cccc(N4CCC(N5CCCC5=O)CC4)c3CCN2C(=O)c2cn(-c3cccc(Cl)c3F)nn2)cc1` (centres unmarked) [Example 72, 4-(2-(1-(3-chloro-2-fluorophenyl)-1H-1,2,3-triazole-4-carbonyl)-5-(4-(2-oxopyrrolidin-1-yl)piperidin-1-yl)-1,2,3,4-tetrahydroisoquinoline-1-carboxamido)benzoic acid, TFA salt], the Ki in assay [1] (setting [4]) is 13.8 nM; in assay [2] (setting [3]), less than 5 nM.
Regarding `CC(C)c1nnc2n1CCN(c1cccc3c1CCN(C(=O)[C@H]1CC(c4cccc(Cl)c4F)=NO1)[C@H]3C(=O)Nc1ccc(C(=O)O)cc1)C2` [Example 337, 4-((R)-2-((R)-3-(3-Chloro-2-fluorophenyl)-4,5-dihydroisoxazole-5-carbonyl)-5-(3-isopropyl-5,6-dihydro-[1,2,4]triazolo[4,3-a]pyrazin-7(8H)-yl)-1,2,3,4-tetrahydroisoquinoline-1-carboxamido)benzoic acid, TFA salt], the Ki in assay [1] (measured at 37° C. (*)) was determined as 68.1 nM; in assay [2] (setting [3]), 27.9 nM.
For the compound `COC1CCN(c2cccc3c2CCN(C(=O)c2cnn(-c4cccc(Cl)c4F)c2)[C@@H]3C(=O)Nc2ccc(C(=O)O)cc2)CC1` [Example 315, (S)-4-(2-(1-(3-chloro-2-fluorophenyl)-1H-pyrazole-4-carbonyl)-5-(4-methoxypiperidin-1-yl)-1,2,3,4-tetrahydroisoquinoline-1-carboxamido)benzoic acid, TFA salt], the Ki is 19.6 nM in assay [1] (setting [4]) and less than 5 nM in assay [2] (setting [3]).
Regarding `COc1ncc(-c2cccc3c2CCN(C(=O)c2cn(-c4cccc(Cl)c4F)nn2)C3C(=O)Nc2ccc(C(=O)O)cc2)cn1` (centres unmarked) [Example 31, 4-(2-(1-(3-chloro-2-fluorophenyl)-1H-1,2,3-triazole-4-carbonyl)-5-(2-methoxypyrimidin-5-yl)-1,2,3,4-tetrahydroisoquinoline-1-carboxamido)benzoic acid], the results for the Ki in assay [1] (setting [4]) and in assay [2] were 19.9 nM and less than 5 nM, respectively.
With `CN(C)C1CCN(c2cccc3c2CCN(C(=O)c2cn(-c4cccc(Cl)c4F)nn2)[C@@H]3C(=O)Nc2ccc(C(=O)O)cc2)CC1` (single isomer, unassigned) [Example 49, bis-TFA salt], the inhibition constant Ki in assay [1] (setting [4]) was 1.39 nM; in assay [2] (setting [3]) it was less than 5 nM.
Turning to `Cc1ncn(-c2cccc3c2CCN(C(=O)[C@H]2CC(c4cccc(Cl)c4F)=NO2)[C@@H]3C(=O)Nc2ccc(C(=O)O)cc2)n1` [Example 250, 4-((S)-2-((R)-3-(3-Chloro-2-fluorophenyl)-4,5-dihydroisoxazole-5-carbonyl)-5-(3-methyl-1H-1,2,4-triazol-1-yl)-1,2,3,4-tetrahydroisoquinoline-1-carboxamido)benzoic acid, TFA salt], the results for the inhibitory constant (Ki) in assay [1] (measured at 37° C. (*)) and in assay [2] (setting [3]) were 6.8 nM and less than 5 nM, respectively.
